Measured values as given in US6673840B1, “Use of lipoxygenase metabolite of arachidonic acid and its derivatives in capsaicin-channel agonist” (priority 1998, dated 2004).
Entries after “also recorded” stand apart in the source; their conditions may differ.

Columns and labels:
[1] = molecular target: T1, CAP channel (Rattus norvegicus, UniProt O35433); test: single channel current recording with patch clamp technique, inside-out membrane patches of cultured sensory neurons; format: cell-based; conditions: for Hill coefficient: concentration-response curve of channel activation; for amplitude of the single channel currents: membrane potential of 60 mV; for relative agonistic potency (Po as percentage of Po at 0.5 μM CAP): metabolites at 10~20 μM; for generation of single channel currents (activation of CAP channel): applied to intracellular side of membrane patch, CAP 0.5 μM, 12-HPETE 2 μM
T1 construct: administered at an amount of 10˜20 μM to the membrane patches of cultured sensory neurons; endogenous in cells; host or cells: cultured sensory neurons (inside-out membrane patches)
T1 sequence (O35433 whole entry): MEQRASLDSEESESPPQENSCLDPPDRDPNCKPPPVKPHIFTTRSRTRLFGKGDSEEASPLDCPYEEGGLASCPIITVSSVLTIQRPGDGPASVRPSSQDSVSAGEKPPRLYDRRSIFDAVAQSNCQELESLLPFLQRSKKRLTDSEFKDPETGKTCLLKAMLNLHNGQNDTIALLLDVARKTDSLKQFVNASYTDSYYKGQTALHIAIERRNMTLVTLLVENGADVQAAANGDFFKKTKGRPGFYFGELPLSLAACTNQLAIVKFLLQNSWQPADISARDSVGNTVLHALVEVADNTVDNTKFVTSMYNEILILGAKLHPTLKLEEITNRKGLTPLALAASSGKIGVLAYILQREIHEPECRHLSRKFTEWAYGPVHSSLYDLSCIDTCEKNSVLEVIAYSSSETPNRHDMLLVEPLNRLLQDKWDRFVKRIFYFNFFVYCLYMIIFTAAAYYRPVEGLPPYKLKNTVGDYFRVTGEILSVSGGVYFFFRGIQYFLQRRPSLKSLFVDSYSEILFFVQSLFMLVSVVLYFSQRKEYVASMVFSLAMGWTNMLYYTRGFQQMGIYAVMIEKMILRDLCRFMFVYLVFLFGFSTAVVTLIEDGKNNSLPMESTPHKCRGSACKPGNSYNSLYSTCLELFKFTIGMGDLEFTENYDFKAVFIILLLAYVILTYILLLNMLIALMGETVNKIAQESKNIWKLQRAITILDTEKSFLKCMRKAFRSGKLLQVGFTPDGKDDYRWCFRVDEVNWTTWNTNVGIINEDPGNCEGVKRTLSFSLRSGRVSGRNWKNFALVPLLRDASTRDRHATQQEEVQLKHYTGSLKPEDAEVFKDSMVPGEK
Experimental: In the present invention, use was made of a single channel recording method with the aid of a patch clamp technique (Hamill et al., Pfl gers Arch 391:85-100, 1981) in order to know whether lipoxygenase metabolites activate CAP channels or receptors or not. […] Because the tests are performed in isolated membrane patches without the mediation of intracellular second messengers, lipoxygenase metabolites are believed to exert a direct action on the CAP channel.
An examination was made on the efficiency with which the various lipoxygenase metabolites activate CAP channels. To this end, a patch clamp technique was used to record the single channel current generated in the CAP channel to which various lipoxygenase metabolites were applied to measure the open probability (Po) of the CAP channel. To compare the relative potency of each metabolite, the effects of the lipoxygenase metabolites on CAP channels were measured with a reference to 0.5 μM CAP.
A single channel current recording method using a patch clamp technique (Hamill et al., supra; Oh et al., 1996a) was used to know whether the lipoxygenase metabolites directly activate the CAP channel.
Because the binding site of CAP was located on the intracellular side of the channel (Oh et al., 1996b), the metabolites were applied to the intracellular sides of cell membrane patches.
In order to compare the agonistic potencies of the various metabolites synthesized by the action of various lipoxygenases, one patch was administered with 0.5 μM of CAP and then, with various lipoxygenase metabolites. At each experiment, the open probabilities (Po) of the channel attributable to the metabolites were recorded and calculated as a percentage to the open probability obtained at 0.5 μM CAP.
All of the lipoxygenase metabolites tested were administered at an amount of 10˜20 μM to the membrane patches of cultured sensory neurons. The relative potency of the metabolites in activating the channel was depicted in FIG. 7. As apparent from this histogram, almost all of the lipoxygenase metabolites, if different in agonistic potency, activate the CAP channel.
12-HPETE was administered at various concentrations from 0.25 to 20 μM to the cell membrane patches of sensory nerve cells, in order to plot a concentration-response curve. As a result, FIG. 8a was obtained. […] Returning now to FIG. 8a, the channel activation currents obtained at each 12-HPETE concentration were calculated as relative degrees to the channel activation current obtained at 20 μM of 12-HEPETE. The relative channel degrees were plotted against the concentrations of […] 12-HPETE and the resulting plot followed the Hill equation.

[2] = test system: sensory nerve fibers (c-fibers) of the skin; test: skin-nerve preparation, action potentials of cutaneous pain nerve c-fibers; set-up: species or system rats
Experimental: To recognize whether the excitation of BK on nerve cells is accomplished via the arachidonic acid-lipoxygenase-CAP pathway, in vivo, a measurement was made on the action potentials in the sensory nerve fibers of the rats, as shown in FIGS. 13a and 13b. particularly, pain nerves which exist in the skin were isolated, together with a overlapping area of the skin, and the action potentials were measured from the nerve filaments using skin-nerve preparation (Reeh, 1998; Steen et al., 1992, 1995) as schematically illustrated in FIG. 13a. While unit action potentials measured at the sensory nerve fibers isolated from the skin, frequencies of the action potentials induced by the administration of BK were recorded. An increase in frequency of the action potentials means excitation of the sensory nerves.
The transmission speed of nerve signals were measured and only c-fibers (non-myelinated sensory nerve fibers) were used in the BK response experiment. The reason why c-fibers are used only is that they consist mainly of pain nerve cells (Willis and Coggeshall, 1991; Yaksh, 1986).
With reference to FIG. 13b, there are illustrated the action potential behaviors of the cutaneous pain nerve in response to agonist and antagonist samples. […] In order to recognize whether the nerve excitation of BK was attributed to the opening of CAP channels, CZP was administered at a dose of 10 μM, together with BK, to the skin. […] An experiment in which BK was administered alone or in combination with CZP to the skin, was repeated 20 times with the aim of testing the influence which BK and a combination of BK and CZP had on the activation of nerve cells, and the results are summarized as shown in FIG. 13c.
When the sensory nerve fibers were excited in response to BK, inhibitors against the enzymes required for the arachidonic acid-lipoxygenase-CAP receptor pathway were used in order to identify whether the response passed through the pathway. In the histogram of FIG. 14, the bar length of each inhibitor represents % activation relative to the activation effect obtained when BK was used alone in absence of any inhibitor. For example, CZP, if added along with BK, suppressed the activation response to BK by approximately […].

[3] = test system: cultured sensory nerve cells; test: whole-cell currents in cultured sensory nerve cells in response to BK; format: cell-based; conditions: CZP 10 μM; 5 μM of BK
Excerpt: When taking various experimental results previously obtained into account, it was inferred that BK has a possibility to open CAP channels through the arachidonic acid-lipoxygenase pathway. To confirm this inference, an examination was made regarding whether the currents generated in cultured sensory nerve sells in response to BK were diminished by CZP or other lipoxygenase inhibitors. If BK made CAP channel open via the arachidonic acid-lipoxygenase pathway, the current response to BK must be reduced by CZP. However, rarely did the cultured cells respond to BK.

[4] = molecular target: T1, CAP channel; test: single channel current recording with patch clamp technique, inside-out membrane patches of cultured sensory neurons; format: cell-based

CCCCC/C=C\CC(/C=C/C=C\C/C=C\CCCC(=O)O)OO (centres unmarked) [12-HPETE, 12-hydroperoxyeicosatetraenoic acid]
patches in which activation of CAP channels was detected ([1]; 12-HPETE 2-20 μM, of the 97 patch samples tested): 88 patches
Po channel open probability ([1]; 12-HPETE alone, increased from 0.0, n=4): 0.019±0.0002
reversal potential ([1]; bi-ionic system 140 mM Na+ / 140 mM K+, 2~10 μM 12-HPETE): −1.71±0.49 mV
permeability ratio of K+/Na+ (PK/PNa) ([1]; calculated from bi-ionic system experiment): 1.1
Hill coefficient [1]: 2.4
amplitude of the single channel currents [1]: 2.68±0.012 pA
relative agonistic potency (Po as percentage of Po at 0.5 μM CAP) [1]: most potent endogenous agonist; also recorded: highest agonistic potency

COc1cc(CNC(=O)CCCC/C=C/C(C)C)ccc1O [CAP, capsaicin]
generation of single channel currents (activation of CAP channel) [1]: single channel current which was greatly generated
Hill coefficient [1]: 2.4
amplitude of the single channel currents [1]: 2.72±0.06 pA
action potentials of the nerve fibers (excitation) ([2]; administered to skin patch, BK 1 μM): largely increased action potentials

Oc1cc2c(cc1O)CN(C(=S)NCCc1ccc(Cl)cc1)CCC2 [CZP, capsazepine]
effect on single channel currents activated by 12-HPETE ([1]; 10 μM of CZP present): single channel currents were not observed
Po channel open probability ([1]; co-existence of 10 μM of CZP and 10 μM of 12-HPETE): 0.001±0.000002
effect on current generated by BK [3]: reduced the current
effect on response of skin nerve to BK ([2]; CZP 10 μM together with BK): Great suppression

COc1ccc2c(c1)c(CC(=O)O)c(C)n2C(=O)c1ccc(Cl)cc1 [INDO, indomethacin]
effect on the BK response ([2]; 2 μM indomethacin): failed to inhibit the BK response

CC(Cc1ccc(O)c(O)c1)C(C)Cc1ccc(O)c(O)c1 (centres unmarked) [NDGA, nordihydroguaiaretic acid]
effect on single channel current generated by arachidonic acid ([4]; NDGA administered together with arachidonic acid): reversibly controlled depending on the presence or absence of NDGA
lowering of the activation of BK ([2]; 50 μM of NDGA, relative to BK alone): 70%

CCCCC[C@H](O)/C=C/[C@H]1C(=O)C[C@H](O)[C@@H]1C/C=C\CCCC(=O)O [PGD2]
generation of single channel currents (activation of CAP channel) [1]: no channel currents were generated

CCCCC[C@H](O)/C=C/[C@H]1[C@H](O)CC(=O)[C@@H]1C/C=C\CCCC(=O)O [PGE2, prostaglandin E2]
generation of single channel currents (activation of CAP channel) [1]: no channel currents were generated

CCCCC[C@H](O)/C=C/[C@@H]1[C@H]2C/C(=C/CCCC(=O)O)O[C@H]2C[C@H]1O [PGI2]
generation of single channel currents (activation of CAP channel) [1]: no channel currents were generated

CCN(CC)CCCC(C)Nc1c2ccc(Cl)cc2nc2ccc(OC)cc12 (centres unmarked) [QN, Quinacrine]
suppressive effect on the activation response to BK ([2]; relative to BK alone): 70%

CCCCC/C=C\C/C=C\C/C=C\C/C=C\CCCC(=O)O [arachidonic acid]
experiments in which channel currents were weakly induced ([4]; arachidonic acid 10 to 50 μM): 54%
experiments in which the CAP channels were not activated ([4]; arachidonic acid 10 to 50 μM): approximately 46%
trials in which the CAP channels were not activated ([4]; arachidonic acid 10 to 50 μM, of 69 trials): 32 trials

CCCCC/C=C\C[C@@H](O)/C=C/C=C/C=C\[C@@H](O)CCCC(=O)O [leukotriene B4]
relative agonistic potency (Po as percentage of Po at 0.5 μM CAP) [1]: poor in the activation potency
